In ChEMBL document CHEMBL2074119, “Multispecific substrate recognition of kidney-specific organic anion transporters OAT-K1 and OAT-K2” (J Pharmacol Exp Ther, 2001):

Legend:
[1] = target: T1, Solute carrier organic anion transporter family member 1A3 (Rattus norvegicus, UniProt P70502); test: TP_TRANSPORTER: inhibition of Taurocholate uptake (Taurocholate: 0.25 uM, OTA: 100 uM) in OAT-K1-expressing MDCK cells; assay type: functional, cell-based; details: dog
T1 sequence (P70502 whole entry): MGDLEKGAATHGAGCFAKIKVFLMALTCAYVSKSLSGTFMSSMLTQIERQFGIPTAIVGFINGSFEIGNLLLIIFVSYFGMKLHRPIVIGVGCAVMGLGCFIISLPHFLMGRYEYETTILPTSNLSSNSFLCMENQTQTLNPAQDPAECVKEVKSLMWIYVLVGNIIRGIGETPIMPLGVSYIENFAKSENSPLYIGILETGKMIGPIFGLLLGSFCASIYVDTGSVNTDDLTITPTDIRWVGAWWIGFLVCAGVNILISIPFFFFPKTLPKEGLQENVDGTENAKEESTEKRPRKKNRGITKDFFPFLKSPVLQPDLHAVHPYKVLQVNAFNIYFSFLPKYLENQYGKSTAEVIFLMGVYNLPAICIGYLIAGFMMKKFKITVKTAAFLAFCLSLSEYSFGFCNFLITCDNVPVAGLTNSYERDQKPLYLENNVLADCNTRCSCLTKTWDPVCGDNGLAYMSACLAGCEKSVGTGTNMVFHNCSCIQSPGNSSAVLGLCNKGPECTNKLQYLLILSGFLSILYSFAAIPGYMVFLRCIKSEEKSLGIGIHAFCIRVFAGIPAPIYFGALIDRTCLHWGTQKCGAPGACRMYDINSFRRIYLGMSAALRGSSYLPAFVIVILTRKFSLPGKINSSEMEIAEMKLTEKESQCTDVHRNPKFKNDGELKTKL

[2] = target: T2, OAT-K1 (Solute carrier organic anion transporter family member 1A3) (Rattus norvegicus, UniProt P70502); test: (§1) TP_TRANSPORTER: uptake in OAT-K1-expressing MDCK cells; assay type: functional, cell-based; details: dog
T2 sequence (P70502 whole entry): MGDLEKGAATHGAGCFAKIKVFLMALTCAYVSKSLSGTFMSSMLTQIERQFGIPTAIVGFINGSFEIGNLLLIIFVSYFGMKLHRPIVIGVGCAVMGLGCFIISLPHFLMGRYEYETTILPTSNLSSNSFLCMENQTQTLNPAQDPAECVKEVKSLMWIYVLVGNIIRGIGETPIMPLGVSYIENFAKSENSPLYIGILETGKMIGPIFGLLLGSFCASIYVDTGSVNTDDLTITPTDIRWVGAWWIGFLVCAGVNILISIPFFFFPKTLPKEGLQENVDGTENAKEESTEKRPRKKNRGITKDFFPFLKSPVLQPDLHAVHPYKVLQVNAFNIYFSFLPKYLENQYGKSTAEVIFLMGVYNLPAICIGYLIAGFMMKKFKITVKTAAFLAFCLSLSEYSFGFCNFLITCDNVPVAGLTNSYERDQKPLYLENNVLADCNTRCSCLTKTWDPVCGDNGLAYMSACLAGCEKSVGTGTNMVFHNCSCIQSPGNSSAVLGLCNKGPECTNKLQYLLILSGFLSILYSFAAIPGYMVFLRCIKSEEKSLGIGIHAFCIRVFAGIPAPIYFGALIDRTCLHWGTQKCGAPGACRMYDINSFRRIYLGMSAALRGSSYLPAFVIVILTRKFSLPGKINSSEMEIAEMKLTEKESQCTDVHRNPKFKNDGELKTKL

[3] = target: T3, OAT-K2 (Solute carrier organic anion transporter family member 1A3) (Rattus norvegicus, UniProt P70502); test: (§2) TP_TRANSPORTER: uptake in OAT-K2-expressing MDCK cells; assay type: functional, cell-based; details: dog
T3 sequence (P70502 whole entry): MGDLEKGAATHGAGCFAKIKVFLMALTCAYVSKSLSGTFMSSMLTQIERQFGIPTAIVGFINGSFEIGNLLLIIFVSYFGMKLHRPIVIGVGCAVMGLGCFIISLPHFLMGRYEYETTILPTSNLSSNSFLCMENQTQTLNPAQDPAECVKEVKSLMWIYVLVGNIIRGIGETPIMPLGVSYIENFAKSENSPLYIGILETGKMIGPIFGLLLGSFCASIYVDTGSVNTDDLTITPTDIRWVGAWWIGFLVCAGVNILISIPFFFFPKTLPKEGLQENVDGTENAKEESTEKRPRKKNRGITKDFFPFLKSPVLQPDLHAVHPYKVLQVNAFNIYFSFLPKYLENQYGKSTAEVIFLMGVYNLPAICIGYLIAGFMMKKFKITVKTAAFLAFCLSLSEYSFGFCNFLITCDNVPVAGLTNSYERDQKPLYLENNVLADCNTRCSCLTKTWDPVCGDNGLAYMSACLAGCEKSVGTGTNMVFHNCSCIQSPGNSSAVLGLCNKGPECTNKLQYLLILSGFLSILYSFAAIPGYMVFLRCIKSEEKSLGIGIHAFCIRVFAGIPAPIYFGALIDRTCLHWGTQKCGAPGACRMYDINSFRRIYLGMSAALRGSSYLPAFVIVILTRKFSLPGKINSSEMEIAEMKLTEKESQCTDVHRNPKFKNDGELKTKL

[4] = target: T1, Solute carrier organic anion transporter family member 1A3; test: TP_TRANSPORTER: inhibition of Taurocholate uptake (Taurocholate: 0.25 uM, DHEA-3-acetate: 100 uM) in OAT-K1-expressing MDCK cells; assay type: functional, cell-based; details: dog
[5] = target: T1, Solute carrier organic anion transporter family member 1A3; test: TP_TRANSPORTER: inhibition of MTX uptake (MTX: 0.1 uM, T4: 50 uM) in OAT-K2-expressing MDCK cells; assay type: functional, cell-based; details: dog
[6] = target: T1, Solute carrier organic anion transporter family member 1A3; test: TP_TRANSPORTER: inhibition of MTX uptake (MTX: 0.1 uM, T3: 50 uM) in OAT-K2-expressing MDCK cells; assay type: functional, cell-based; details: dog
[7] = target: T4, Solute carrier organic anion transporter family member 1A4 (Rattus norvegicus, UniProt O35913); test: TP_TRANSPORTER: inhibition of Digoxin uptake in Xenopus laevis oocytes
T4 sequence (O35913 whole entry): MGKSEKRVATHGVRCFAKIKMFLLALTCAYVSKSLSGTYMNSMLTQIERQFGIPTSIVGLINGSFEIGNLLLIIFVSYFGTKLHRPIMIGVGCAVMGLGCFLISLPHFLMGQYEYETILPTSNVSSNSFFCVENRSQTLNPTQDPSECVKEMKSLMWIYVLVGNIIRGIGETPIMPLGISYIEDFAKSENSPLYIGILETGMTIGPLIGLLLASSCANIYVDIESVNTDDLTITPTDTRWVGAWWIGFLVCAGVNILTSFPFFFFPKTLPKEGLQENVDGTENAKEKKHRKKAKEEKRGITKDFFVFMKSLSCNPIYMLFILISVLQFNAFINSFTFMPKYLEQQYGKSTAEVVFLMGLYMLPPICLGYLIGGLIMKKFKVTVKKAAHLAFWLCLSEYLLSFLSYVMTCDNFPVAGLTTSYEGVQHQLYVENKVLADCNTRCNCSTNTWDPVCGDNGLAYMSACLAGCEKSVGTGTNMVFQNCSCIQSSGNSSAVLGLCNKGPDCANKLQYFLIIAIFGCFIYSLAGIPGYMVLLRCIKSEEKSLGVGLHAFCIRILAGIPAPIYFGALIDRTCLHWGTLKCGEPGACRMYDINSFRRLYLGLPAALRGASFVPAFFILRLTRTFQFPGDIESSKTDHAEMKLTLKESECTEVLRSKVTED

[8] = target: T1, Solute carrier organic anion transporter family member 1A3; test: TP_TRANSPORTER: inhibition of T3 uptake (T3: 0.43nM, MTX: 2500 uM) in OAT-K1-expressing MDCK cells; assay type: functional, cell-based; details: dog
[9] = target: T1, Solute carrier organic anion transporter family member 1A3; test: TP_TRANSPORTER: inhibition of T3 uptake (T3: 0.43nM, MTX: 2500 uM) in OAT-K2-expressing MDCK cells; assay type: functional, cell-based; details: dog
[10] = target: T1, Solute carrier organic anion transporter family member 1A3; test: TP_TRANSPORTER: inhibition of Taurocholate uptake (Taurocholate: 0.25 uM, DHEAS: 100 uM) in OAT-K1-expressing MDCK cells; assay type: functional, cell-based; details: dog
[11] = target: T1, Solute carrier organic anion transporter family member 1A3; test: TP_TRANSPORTER: inhibition of Taurocholate uptake (Taurocholate: 0.25 uM, DHEA: 100 uM) in OAT-K1-expressing MDCK cells; assay type: functional, cell-based; details: dog
[12] = substrate: [H][C@@]12CC=C3C[C@@H](OS(=O)(=O)O)CC[C@]3(C)[C@@]1([H])CC[C@]1(C)C(=O)CC[C@@]21[H]; test: as §2; assay type: functional, cell-based
[13] = substrate: N[C@@H](Cc1cc(I)c(Oc2ccc(O)c(I)c2)c(I)c1)C(=O)O; test: as §2; assay type: functional, cell-based
[14] = substrate: CN(Cc1cnc2nc(N)nc(N)c2n1)c1ccc(C(=O)N[C@@H](CCC(=O)O)C(=O)O)cc1; test: as §2; assay type: functional, cell-based
[15] = substrate: N[C@@H](Cc1cc(I)c(Oc2cc(I)c(O)c(I)c2)c(I)c1)C(=O)O; test: as §2; assay type: functional, cell-based
[16] = substrate: C[C@]12CC[C@@H]3c4ccc(O)cc4CC[C@H]3[C@@H]1CC[C@@H]2O[C@@H]1O[C@H](C(=O)O)[C@@H](O)[C@H](O)[C@H]1O; test: as §2; assay type: functional, cell-based
[17] = substrate: [H][C@@]12CC=C3C[C@@H](OS(=O)(=O)O)CC[C@]3(C)[C@@]1([H])CC[C@]1(C)C(=O)CC[C@@]21[H]; test: as §1; assay type: functional, cell-based
[18] = substrate: N[C@@H](Cc1cc(I)c(Oc2ccc(O)c(I)c2)c(I)c1)C(=O)O; test: as §1; assay type: functional, cell-based
[19] = substrate: N[C@@H](Cc1cc(I)c(Oc2cc(I)c(O)c(I)c2)c(I)c1)C(=O)O; test: as §1; assay type: functional, cell-based
[20] = substrate: C[C@]12CC[C@@H]3c4ccc(O)cc4CC[C@H]3[C@@H]1CC[C@@H]2O[C@@H]1O[C@H](C(=O)O)[C@@H](O)[C@H](O)[C@H]1O; test: as §1; assay type: functional, cell-based

Question: For `C[C@@H]1Cc2c(Cl)cc(C(=O)N[C@@H](Cc3ccccc3)C(=O)O)c(O)c2C(=O)O1` [3R14S-OCHRATOXIN A], which Activity [1] is on record?
Answer: inhibitor [(at a rough estimate) 55 % of control]

Question: What about the Km [2] of the same molecule?
Answer: 5.6 µM

Question: What about the Km [3] of the same molecule?
Answer: 16.6 µM

Question: With `CC(=O)O[C@H]1CC[C@@]2(C)C(=CC[C@@H]3[C@@H]2CC[C@]2(C)C(=O)CC[C@@H]32)C1` [DEHYDROEPIANDROSTERONE ACETATE] as the molecule, how does the Activity [4] read?
Answer: inhibitor [(at a rough estimate) 30 % of control]

Question: How did the Activity [5] turn out when `N[C@@H](Cc1cc(I)c(Oc2cc(I)c(O)c(I)c2)c(I)c1)C(=O)O` [LEVOTHYROXINE] was run?
Answer: inhibitor [(at a rough estimate) 60 % of control]

Question: For `N[C@@H](Cc1cc(I)c(Oc2ccc(O)c(I)c2)c(I)c1)C(=O)O` [LIOTHYRONINE], which Activity [6] is on record?
Answer: inhibitor [(at a rough estimate) 60 % of control]

Question: What about the IC50 [7] of the same molecule?
Answer: 50.4 µM

Question: What does the source list for `CN(Cc1cnc2nc(N)nc(N)c2n1)c1ccc(C(=O)N[C@@H](CCC(=O)O)C(=O)O)cc1` [METHOTREXATE]?
Answer: Activity [8]: inhibitor [(at a rough estimate) 75 % of control]; Activity [9]: inhibitor [(at a rough estimate) 75 % of control]

Question: How did the Activity [10] turn out when `C[C@]12CC[C@H](OS(=O)(=O)O)CC1=CC[C@@H]1[C@@H]2CC[C@]2(C)C(=O)CC[C@@H]12` [PRASTERONE SULFURIC ACID] was run?
Answer: inhibitor [(at a rough estimate) 30 % of control]

Question: With `C[C@]12CC[C@H](O)CC1=CC[C@@H]1[C@@H]2CC[C@]2(C)C(=O)CC[C@@H]12` [PRASTERONE] as the molecule, how does the Activity [11] read?
Answer: inhibitor [(at a rough estimate) 30 % of control]

Question: With `Cc1cn([C@H]2C[C@H](N=[N+]=[N-])[C@@H](CO)O2)c(=O)[nH]c1=O` [ZIDOVUDINE] as the molecule, how does the Km [2] read?
Answer: 64.3 µM

Question: What about the Km [3] of the same molecule?
Answer: 76.3 µM

B1: Solute carrier organic anion transporter family member 1A3 (Rattus norvegicus) (protein)
chain: MGDLEKGAATHGAGCFAKIKVFLMALTCAYVSKSLSGTFMSSMLTQIERQFGIPTAIVGFINGSFEIGNLLLIIFVSYFGMKLHRPIVIGVGCAVMGLGCFIISLPHFLMGRYEYETTILPTSNLSSNSFLCMENQTQTLNPAQDPAECVKEVKSLMWIYVLVGNIIRGIGETPIMPLGVSYIENFAKSENSPLYIGILETGKMIGPIFGLLLGSFCASIYVDTGSVNTDDLTITPTDIRWVGAWWIGFLVCAGVNILISIPFFFFPKTLPKEGLQENVDGTENAKEESTEKRPRKKNRGITKDFFPFLKSPVLQPDLHAVHPYKVLQVNAFNIYFSFLPKYLENQYGKSTAEVIFLMGVYNLPAICIGYLIAGFMMKKFKITVKTAAFLAFCLSLSEYSFGFCNFLITCDNVPVAGLTNSYERDQKPLYLENNVLADCNTRCSCLTKTWDPVCGDNGLAYMSACLAGCEKSVGTGTNMVFHNCSCIQSPGNSSAVLGLCNKGPECTNKLQYLLILSGFLSILYSFAAIPGYMVFLRCIKSEEKSLGIGIHAFCIRVFAGIPAPIYFGALIDRTCLHWGTQKCGAPGACRMYDINSFRRIYLGMSAALRGSSYLPAFVIVILTRKFSLPGKINSSEMEIAEMKLTEKESQCTDVHRNPKFKNDGELKTKL
Question: B1 was tested. Which Km [12] did it give?
Answer: 7.6 µM

Question: And the Km [13]?
Answer: 24.8 µM

Question: What about the Km [14] of the same molecule?
Answer: 1.8 µM

Question: And the Km [15]?
Answer: 12 µM

Question: And the Km [16]?
Answer: 44.9 µM

Question: What about the Km [17] of the same molecule?
Answer: 8.5 µM

Question: And the Km [18]?
Answer: 43.8 µM

Question: And the Km [19]?
Answer: 20.2 µM

Question: What about the Km [20] of the same molecule?
Answer: 35.3 µM
